What was measured:
[1] = target: T1, Adenosine receptor A1 (Homo sapiens) (UniProt P30542); experiment: Percentage extracellular acidification rate was evaluated against human adenosine A1 receptor expressed in CHO-K1 cells; type: functional, cell-based
T1 sequence (whole entry): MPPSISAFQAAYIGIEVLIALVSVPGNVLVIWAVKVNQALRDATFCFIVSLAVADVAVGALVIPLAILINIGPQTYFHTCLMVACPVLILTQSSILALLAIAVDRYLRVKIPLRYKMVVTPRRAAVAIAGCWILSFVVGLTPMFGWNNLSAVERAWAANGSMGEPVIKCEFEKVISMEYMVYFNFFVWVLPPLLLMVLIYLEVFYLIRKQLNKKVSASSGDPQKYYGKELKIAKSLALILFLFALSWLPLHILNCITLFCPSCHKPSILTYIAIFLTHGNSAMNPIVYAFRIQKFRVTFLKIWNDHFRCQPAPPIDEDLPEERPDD

Adenosine receptor A1 [2] = target: T2, Adenosine receptor A1 (Rattus norvegicus, UniProt P25099); experiment: Binding affinity against adenosine A1 receptor in rat brain using [3H]R-PIA; type: tissue-based
T2 sequence (P25099 whole entry): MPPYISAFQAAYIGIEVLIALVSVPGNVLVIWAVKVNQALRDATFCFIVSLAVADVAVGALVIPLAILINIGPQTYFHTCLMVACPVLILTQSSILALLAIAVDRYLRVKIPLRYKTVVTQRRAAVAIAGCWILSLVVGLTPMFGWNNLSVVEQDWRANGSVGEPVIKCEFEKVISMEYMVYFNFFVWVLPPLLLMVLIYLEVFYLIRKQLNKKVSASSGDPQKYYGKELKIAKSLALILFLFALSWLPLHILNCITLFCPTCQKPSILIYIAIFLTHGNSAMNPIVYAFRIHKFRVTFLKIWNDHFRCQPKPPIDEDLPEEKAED

[3] = target: T1, Adenosine receptor A1 (Homo sapiens); experiment: Emax for R-PIA against Human Adenosine A1 receptor
Adenosine receptor A1 [4] = target: T3, Adenosine receptor A1 (Homo sapiens, UniProt P30542); experiment: Binding against Human Adenosine A1 receptor
T3 sequence (P30542 whole entry): T1 sequence (whole entry)

| ECAR [1] [%] | Ki (Adenosine receptor A1 [2]) [nM] | Emax [3] [%] | EC50 (Adenosine receptor A1 [4]) [nM] | Structure (SMILES) |
| --- | --- | --- | --- | --- |
| 113 | – | – | – | OC[C@@H]1OC(n2cnc3c2N=CN2C[C@@H](c4ccccc4)N=C32)[C@@H](O)[C@H]1O (stereo partly drawn) |
| 117 | 610 | – | – | NC1=Nc2c(ncn2C2O[C@@H](CO)[C@H](O)[C@@H]2O)C2=N[C@@H](c3ccccc3)CN12 (stereo partly drawn) |
| 106 | – | – | – | OC[C@@H]1OC(n2cnc3c2N=CN2C[C@H](c4ccccc4)N=C32)[C@@H](O)[C@H]1O (stereo partly drawn) |
| 122 | 1020 | 90 | 100000 | NC1=Nc2c(ncn2C2O[C@@H](CO)[C@H](O)[C@@H]2O)C2=N[C@H](c3ccccc3)CN12 (stereo partly drawn) |
